Values of other authors as cited in patent publication US20180000940A1, “INJECTABLE FORMULATIONS OF PARACETAMOL” (TROIKAA PHARMACEUTICALS LIMITED, priority 2014, published 2018).

Settings: solution no 20: 30% propylene-glycol, 40% polyethylene-glycol 400, 30% water; 20° C.

Amount of paracetamol that can be dissolved: about 200 mg/ml
SMILES: CC(=O)Nc1ccc(O)cc1 [paracetamol, Paracetamol]
